# Laboratory results taken from paper PMC9027599, “Secondary Metabolites in Basil, Bio-Insecticide, Inhibition Effect, and In Silico Molecular Docking against Proteolytic Enzymes of the Red Palm Weevil (Rhynchophorus ferrugineus)” (Plants, 2022).
# Tested on: cysteine protease
# Test: Cysteine protease activity of midgut from larvae treated 24 h (in vivo)
# Set-up: species or system Rhynchophorus ferrugineus
# Details: midgut of fourth instar larvae treated for 24 h
# Protocol: The activity of cysteine proteinase was determined in the fourth midgut instar larval homogenate of R. ferrugineus using the substrate Z-Phe-Arg-MNA [1]. […] The reaction was centrifuged (at 5000 rpm, 6 min), then the absorbance was determined (at 520 nm). The activity of cysteine proteinase was measured using an ELISA quick plate reader at the OD520/60 min/mg of midgut protein. […]
# As a control, an assay combination devoid of inhibitors was utilized. The absorbance of the enzymes was determined using an ELISA plate quick reader at various wavelengths. The percentage activity of the control enzyme for each inhibitor was evaluated for each enzyme. Protease activity was assayed in vivo in the R. ferrugineus fourth midgut larval instars, which were treated with 1, 10, 50, 100, 500, 1000, and 5000 mg/L of extracts or compounds, measured as described above. […]
smiles,measurement,value
C[C@@H]1O[C@@H](OC[C@H]2O[C@@H](Oc3c(-c4ccc(O)c(O)c4)oc4cc(O)cc(O)c4c3=O)[C@H](O)[C@@H](O)[C@@H]2O)[C@H](O)[C@H](O)[C@H]1O [Quercetin-3-O-rutinoside],IC50 against cysteine protease (in vivo),746.6 µg/mL
